Tested on: culture astrocyte
Assay: Astrocyte proliferative activity test (BrdU cell proliferation ELISA)
Type: cell-based, mouse
Procedure: A pregnant ICR female mouse was purchased from Japan SLC, Inc., and a neonatal mouse 24 to 48 after birth was used for the test.
A neonatal ICR mouse (24 to 48 after birth) was sufficiently sterilized with 70% ethanol, immersed in 30 ml of PBS (−) in a 100 mm dish (diameter of 100 mm, Orange Scientific) for cell culture, and then placed in a clean bench. The neonatal mouse was subjected to cervical dislocation using tweezers and euthanized. Head of the neonatal mouse was open and the entire brain was removed. The obtained brain was transferred to a 100 mm dish for cell culture in which 15 ml of high glucose Dulbecco's modified Eagle medium (HG-D-MEM, Wako Pure Chemical Industries, Ltd.) is added. By using tweezers, the olfactory bulb, median eminence, and meninges were removed in the medium to obtain only a cerebrum having hippocampus. Subsequently, the obtained cerebrum was transferred to a 100 mm dish for cell culture added with 10 ml of HG-D-MEM, and using a scalpel, the cerebrum was finely cut to be 1 mm^2 or less. The cerebrum after cutting was transferred, together with the medium, to a 50 ml conical tube (TPP), and after allowing it to stand for 2 minutes, the supernatant was removed. Subsequently, the cerebrum after cutting was added with 4 ml of fresh HG-D-MEM, and after further adding 400 μl of 2.5% trypsin (SIGMA) and 40 μl of 1% DNase I (SIGMA), the cerebrum was incubated in a water bath at 37° C. for 10 minutes under intermittent stirring. Subsequently, to the cerebrum after cutting, 10 ml of HG-D-MEM (10% FBS) was added to terminate the reaction of trypsin followed by centrifuge for 3 minutes at 1,000×g using a centrifuge (H-9R, KOKUSAN Co., Ltd.). The supernatant was collected by an electric pipette, 10 ml of HG-D-MEM (10% FBS) was added to a precipitated cell mass, and pipetting using a sterile pipette was carried out several times until the cell mass is not observed. To remove the remaining cell mass from this cell dispersion, the cell dispersion was passed through a cell strainer (pore diameter of 100 μm, BD Falcon™), and the number of cells in the cell dispersion which has passed through the cell strainer was counted by using a cell counting plate. An adjustment was made with HG-D-MEM (10% FBS) such that the number of cells is 6.0×10^5 cells/ml. After the adjustment of the number of cells, the cell dispersion was seeded, in an amount of 7 ml for each, to a Poly-D-Lysine Cellware 100 mm Dish (PDL 100 mm dish, BD Falcon™). 96 Hours after the seeding, the medium was removed once using an aspirator, and after briefly washing the inside of a 100 mm PDL dish with 10 ml of PBS (−), the medium exchange was carried out by newly adding 7 ml of HG-D-MEM. The above method and the astrocyte preparation described below were carried out based on the method of McCarthy and de Vellis (1980, Non Patent Literature 30).
72 Hours after the medium exchange, the 100 mm PDL dish seeded with the cell broth was removed from the incubator, and tightly covered using a parafilm and fixed by overlaying 3 to 4 dishes. The resultant was cultured by shaking using a bioshaker (MULTI SHAKER MMS, INCUBATOR FMS/EYELA) under a condition including 37° C., 100 rpm, and 20 hours, and the neuronal cells, cell debris, dead cells or the like were liberated. At that time, in the inside the 100 mm PDL dish, only the astrocyte as a glial cell in central nervous system other than neuron was adhered (hereinbelow, described as culture astrocyte). After the shaking, the 100 mm PDL dish was transferred to a clean bench, the supernatant was removed by an aspirator and washed with 10 ml of PBS (−), and after adding 1 ml of 2.5% trypsin (SIGMA) using a Pasteur pipette, the dish was left to stand in an incubator for 10 minutes. The 100 mm PDL dish was again brought back to the clean bench, and added with 10 ml of Dulbecco's modified Eagle medium (D-MEM, Wako Pure Chemical Industries, Ltd.) (10% FBS). […]

Row | Structure (SMILES) | astrocyte proliferation (100 μM, FIG. 7) | astrocyte proliferative activity (25 μM, FIG. 8 and FIG. 9)
1 | NS(=O)(=O)Cc1noc2ccccc12 [zonisamide, reference compound] | hardly observed | –
2 | CNC(=O)Oc1ccc2c(c1)[C@]1(C)CCN(C)[C@@H]1N2C [eserin, reference compound] | – | no significant astrocyte proliferative activity was observed

Reference: patent US10654890B2, “Cyclic peptide derivative, method for preparing same and composition thereof” (priority 2014, dated 2020)
